Legend:
[1] = target: human glucocorticoid receptor (Homo sapiens (Human), UniProt P04150); assay: Human glucocorticoid receptor (hGR) ligand-binding assay (3H-dexamethasone competition, IM9 cytosol); details: read-out: % inhibition hGR at 1 μM
Description: Preferably, the glucocortitcoid receptor extracted from cytosol of IM9 cells is used for competitive radioligand binding assays to calculate percentage inhibition of the binding of radiolabeled ligand 3H-dexamethasone at the human glucocorticoid receptor.
The human lymphoblast cell line IM9 (ATCC, Bethesda, MD) was cultivated in RPMI 1640 media containing 10% fetal bovine serum, penicillin (100 U/ml), streptomycin (100 μg/ml), and 2 mM L-glutamine at 37° and 7% CO2 in a humidified incubator. Cells were centrifuged for 10 minutes at 1500 g and were washed in PBS and repelleted. Cell were then resuspended in homogenization buffer consisting of: 10 mM TES, 10 mM sodium molybdate, 1 mM EDTA, pH 7.4, 20 mM 2-mercaptoethanol, and 10% glycerol. Disruption of the cells was performed by nitrogen cavitation using 2×15 minutes at 600 to 750 psi nitrogen in a N2 cavitator at 0° C. The cell preparation was then centrifuged at 27,000 g for 15 minutes, and the resultant supernatant (=cytosol of IM9 cells) was centrifuged at 103,000 g for 60 minutes at 4° C. The amount of protein in the supernatant fraction was determined using a BCA assay kit and aliquots were snap frozen in a dry ice-acetone bath and stored at −70° C. Competitive binding assays were done in duplicate in homogenization buffer with a total volume of 200 μl. To this end, 1 mg of IM9 cytosol, 0.05 μCi (1.5 nM) of 3H-dexamethasone and unlabeled Example compounds as competitor compounds at 1 μM were mixed. The reaction was stopped after incubation at 0° C. for 16 to 18 hours by the addition of 100 μl of a charcoal-dextran mixture (2% activated charcoal, 0.5% dextran in 10 mM Tris, 1 mM EDTA, pH 7.4). Another incubation step at 0° C. for 10 minutes followed before the samples were centrifuged for 5 minutes at 8200 g. 100 μl of the supernatant) was finally assayed for radioactivity by liquid scintillationspectrometry, and percentage inhibition of 3H-dexamethasone binding was calculated.

[2] = target: glucocorticoid receptor (GAL4 DBD-GR) (Homo sapiens (Human), UniProt P04150); assay: GR cell-based assays (GRE agonist / GRE antagonist), CHO-Gal4/GR luciferase reporter; details: read-out: IC50 or EC50
Summary of the method: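 CHO cells stably carrying GAL4 DBD-GR ligand-binding-domain fusion and a GAL4-UAS firefly luciferase reporter were treated in Opti-MEM with 8 half-log concentrations from 10 μM to 0.003 μM (0.5% DMSO, quadruplicates). Antagonist mode measured repression of beclomethasone-induced signal. Luminescence after lysis gave EC50 or IC50.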

glucocorticoid receptor (GAL4 DBD-GR), sequence (P04150 524-758): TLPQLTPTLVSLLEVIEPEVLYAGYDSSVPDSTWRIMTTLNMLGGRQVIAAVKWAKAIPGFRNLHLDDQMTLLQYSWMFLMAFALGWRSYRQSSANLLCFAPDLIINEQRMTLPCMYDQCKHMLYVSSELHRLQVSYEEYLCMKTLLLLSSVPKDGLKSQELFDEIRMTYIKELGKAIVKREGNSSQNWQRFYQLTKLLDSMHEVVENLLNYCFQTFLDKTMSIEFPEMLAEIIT
human glucocorticoid receptor, sequence (P04150 whole entry): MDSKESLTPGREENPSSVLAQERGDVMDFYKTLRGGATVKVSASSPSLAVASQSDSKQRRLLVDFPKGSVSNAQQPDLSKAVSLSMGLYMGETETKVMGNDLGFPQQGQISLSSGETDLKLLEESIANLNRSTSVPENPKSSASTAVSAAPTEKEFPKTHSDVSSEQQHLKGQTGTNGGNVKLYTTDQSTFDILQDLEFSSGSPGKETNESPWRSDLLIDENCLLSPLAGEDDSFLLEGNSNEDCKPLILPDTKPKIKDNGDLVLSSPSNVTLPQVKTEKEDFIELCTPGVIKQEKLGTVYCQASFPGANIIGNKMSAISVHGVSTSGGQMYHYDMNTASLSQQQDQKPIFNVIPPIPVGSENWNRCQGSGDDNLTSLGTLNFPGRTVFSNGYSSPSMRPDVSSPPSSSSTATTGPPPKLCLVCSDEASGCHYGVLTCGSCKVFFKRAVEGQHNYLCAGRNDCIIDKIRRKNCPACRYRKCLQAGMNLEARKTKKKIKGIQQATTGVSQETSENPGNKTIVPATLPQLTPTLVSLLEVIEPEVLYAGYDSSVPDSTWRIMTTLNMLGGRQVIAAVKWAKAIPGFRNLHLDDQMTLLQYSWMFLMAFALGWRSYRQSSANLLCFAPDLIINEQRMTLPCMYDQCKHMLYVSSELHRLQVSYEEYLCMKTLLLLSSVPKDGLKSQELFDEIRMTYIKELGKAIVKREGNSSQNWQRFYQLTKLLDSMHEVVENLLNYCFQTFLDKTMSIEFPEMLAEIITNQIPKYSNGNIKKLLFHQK

| inhibition at 1 µM [1] [%] | IC50 [2] [nM] | SMILES |
| --- | --- | --- |
| 97 | 100 to 1000 | Cc1cnc(C(=O)N[C@@H]2[C@@H](c3ccccc3)N(c3ccc4c(cnn4-c4ccc(=O)n(C)c4)c3)C(=O)C2(C)C)s1 [Example 6, N-[(2R,3S)-4,4-Dimethyl-1-[1-(1-methyl-6-oxo-1H-pyridin-3-yl)-1H-indazol-5-yl]-5-oxo-2-phenyl-pyrrolidin-3-yl]-5-methyl-thiazole-2-carboxylic acid amide] |
| 96 | 1000 to 15000 | Cc1cc(C(=O)N[C@@H]2[C@@H](c3ccccc3)N(c3ccc4c(cnn4-c4ccc(=O)n(C)c4)c3)C(=O)C2(C)C)no1 [Example 7, N-((2R,3S)-4,4-dimethyl-1-(1-(1-methyl-6-oxo-1,6-dihydropyridin-3-yl)-1H-indazol-5-yl)-5-oxo-2-phenylpyrrolidin-3-yl)-5-methylisoxazole-3-carboxamide] |
